# Where two headings read alike, the source gives them in different places.
# Experiment: Tissue concentrations of Formula I and its metabolites in Göttingen pigs after a single oral or intravenous dose (LC-MS/MS)
# Format: in vivo
# Conditions: for Exposure in the lung and spleen, fold lower than liver and kidneys: after PO dosing with Formula I; for concentration at 2 h / concentration at 3 h / concentration at 12 h / concentration at 24 h: both sexes, Göttingen, pig (minipig)
# Procedure: Tissue samples were collected at 3, 12, and 24 hours post-dose (hpd) for the oral dose and 2 and 12 hpd for the intravenous dose, snap-frozen in liquid nitrogen, and stored at −60 to −90° C. until shipment on dry ice for analysis by LC-MS/MS.
# Animals were weighed the day prior to dosing to determine the dosing volume.
# The compound of Formula I was dissolved in a PEG 400/DI water (60%/40% v/v) vehicle for oral dosing. For IV dosing the compound of Formula I was dissolved in a PEG 400/Cremophor RH 40/Saline (40%/10%/50% v/v) vehicle and passed through a sterile filter. […] Animals were euthanized by euthanasia solution administration under sedation, if necessary (e.g., acepromazine and or/Telazol®), followed by a Testing Facility SOP approved method to ensure death (e.g., exsanguination). Tissues were collected from two animals per sex per timepoint. Tissue samples, including the brain, heart, kidney, liver, lung, spleen, pancreas, bone marrow, duodenum, jejunum, and colon, were collected in duplicate (approximately 50±20 mg each) and placed into two separate reinforced homogenization tubes per organ (one tissue sample per tube). The exact weight (in milligrams) of each sample was recorded. Tissues samples were flash frozen in liquid nitrogen and stored at −60 to −90° C. until shipment on dry ice for analysis by LC-MS/MS.
# Mobile phase A consisted of 50 mM ammonium bicarbonate buffer in HPLC grade water pH 9.8 and mobile phase B consisted of pure acetonitrile. […] Mass spectrometry analysis was performed on a QTrap 7500 Mass Spectrometer (Sciex, Framingham, MA, USA) using negative mode electrospray ionization (ESI) in multiple reaction monitoring (MRM) mode. Data analysis was performed using SCIEX OS Software (Sciex, Framingham, MA, USA).
# Tissue samples were collected at 3, 12, and 24 hours post-dose for the oral dose and 2 and 12 hour post-dose for the intravenous dose.
# [1] = kidney, single intravenous bolus of Formula I 25 mg/kg, 12 hpd, read-out: Tissue concentration, kidney
# [2] = kidney, single oral dose of Formula I 125 mg/kg, 3 hpd, read-out: Tissue concentration, kidney
# [3] = kidney, single oral dose of Formula I 125 mg/kg, 12 hpd, read-out: Tissue concentration, kidney
# [4] = kidney, single oral dose of Formula I 125 mg/kg, 24 hpd, read-out: Tissue concentration, kidney
# [5] = liver, single intravenous bolus of Formula I 25 mg/kg, 2 hpd, read-out: Tissue concentration, liver
# [6] = liver, single intravenous bolus of Formula I 25 mg/kg, 12 hpd, read-out: Tissue concentration, liver
# [7] = liver, single oral dose of Formula I 125 mg/kg, 12 hpd, read-out: Tissue concentration in Göttingen pig liver (Table 7)
# [8] = liver, single oral dose of Formula I 125 mg/kg, 12 hpd, read-out: Tissue concentration, liver
# [9] = liver, single oral dose of Formula I 125 mg/kg, 24 hpd, read-out: Tissue concentration in Göttingen pig liver (Table 7)
# [10] = liver, single oral dose of Formula I 125 mg/kg, 24 hpd, read-out: Tissue concentration, liver
# [11] = lung, single intravenous bolus of Formula I 25 mg/kg, 2 hpd, read-out: Tissue concentration, lung
# [12] = lung, single intravenous bolus of Formula I 25 mg/kg, 12 hpd, read-out: Tissue concentration, lung
# [13] = lung, single oral dose of Formula I 125 mg/kg, 3 hpd, read-out: Tissue concentration, lung
# [14] = lung, single oral dose of Formula I 125 mg/kg, 12 hpd, read-out: Tissue concentration, lung
# [15] = spleen, single intravenous bolus of Formula I 25 mg/kg, 2 hpd, read-out: Tissue concentration, spleen
# [16] = spleen, single intravenous bolus of Formula I 25 mg/kg, 12 hpd, read-out: Tissue concentration, spleen
# [17] = spleen, single oral dose of Formula I 125 mg/kg, 3 hpd, read-out: Tissue concentration, spleen
# [18] = brain, single intravenous bolus of Formula I 25 mg/kg, 2 hpd
# [19] = brain, single intravenous bolus of Formula I 25 mg/kg, 12 hpd
# [20] = brain, single oral dose of Formula I 125 mg/kg, 3 hpd
# [21] = brain, single oral dose of Formula I 125 mg/kg, 12 hpd
# [22] = brain, single oral dose of Formula I 125 mg/kg, 24 hpd
# [23] = heart, single intravenous bolus of Formula I 25 mg/kg, 12 hpd
# [24] = heart, single oral dose of Formula I 125 mg/kg, 3 hpd
# [25] = heart, single oral dose of Formula I 125 mg/kg, 24 hpd
# [26] = kidney, single intravenous bolus of Formula I 25 mg/kg, 2 hpd
# [27] = kidney, single oral dose of Formula I 125 mg/kg, 3 hpd
# [28] = liver, single oral dose of Formula I 125 mg/kg, 3 hpd
# [29] = liver, single oral dose of Formula I 125 mg/kg, 24 hpd
# [30] = spleen, single oral dose of Formula I 125 mg/kg, 3 hpd
smiles,measurement,setting,value
C[C@H](NP(=O)(O)OC[C@H]1O[C@@H](n2ccc(=O)[nH]c2=S)C(C)(O)C1O)C(=O)O (stereo in doubt) [Formula II],"Exposure in the lung and spleen, fold lower than liver and kidneys",,about 10 fold
same,concentration at 2 h,"brain, single intravenous bolus of Formula I 25 mg/kg, 2 hpd, read-out: Tissue concentration, brain",4.9 ± 9.8 ng/g
same,concentration at 3 h,"brain, single oral dose of Formula I 125 mg/kg, 3 hpd, read-out: Tissue concentration, brain",27 ± 23.4 ng/g
same,concentration at 2 h,"heart, single intravenous bolus of Formula I 25 mg/kg, 2 hpd, read-out: Tissue concentration, heart",292 ± 139 ng/g
same,concentration at 12 h,"heart, single intravenous bolus of Formula I 25 mg/kg, 12 hpd, read-out: Tissue concentration, heart",7.85 ± 9.5 ng/g
same,concentration at 3 h,"heart, single oral dose of Formula I 125 mg/kg, 3 hpd, read-out: Tissue concentration, heart",780 ± 375 ng/g
same,concentration at 12 h,"heart, single oral dose of Formula I 125 mg/kg, 12 hpd, read-out: Tissue concentration, heart",3.33 ± 6.65 ng/g
same,concentration at 2 h,"kidney, single intravenous bolus of Formula I 25 mg/kg, 2 hpd, read-out: Tissue concentration, kidney",6920 ± 3290 ng/g
same,concentration at 12 h,[1],39.3 ± 32.1 ng/g
same,concentration at 3 h,[2],10300 ± 2300 ng/g
same,concentration at 12 h,[3],180 ± 172 ng/g
same,concentration at 24 h,[4],30 ± 12.8 ng/g
same,concentration at 2 h,[5],694 ± 385 ng/g
same,concentration at 12 h,[6],17.9 ± 16.4 ng/g
same,concentration at 3 h,"liver, single oral dose of Formula I 125 mg/kg, 3 hpd, read-out: Tissue concentration in Göttingen pig liver (Table 7)",29200 ± 12200 nM
same,concentration at 3 h,"liver, single oral dose of Formula I 125 mg/kg, 3 hpd, read-out: Tissue concentration, liver",12400 ± 5150 ng/g
same,concentration at 12 h,[7],475 ± 727 nM
same,concentration at 12 h,[8],202 ± 309 ng/g
same,concentration at 24 h,[9],107 ± 60.6 nM
same,concentration at 24 h,[10],45.6 ± 25.8 ng/g
same,concentration at 2 h,[11],786 ± 134 ng/g
same,concentration at 12 h,[12],31.8 ± 5.52 ng/g
same,concentration at 3 h,[13],1630 ± 667 ng/g
same,concentration at 12 h,[14],16.5 ± 12.8 ng/g
same,concentration at 24 h,"lung, single oral dose of Formula I 125 mg/kg, 24 hpd, read-out: Tissue concentration, lung",2.25 ± 4.51 ng/g
same,concentration at 2 h,[15],530 ± 284 ng/g
same,concentration at 12 h,[16],24.8 ± 7.34 ng/g
same,concentration at 3 h,[17],1390 ± 301 ng/g
same,concentration at 12 h,"spleen, single oral dose of Formula I 125 mg/kg, 12 hpd, read-out: Tissue concentration, spleen",11.9 ± 9.24 ng/g
same,concentration at 24 h,"spleen, single oral dose of Formula I 125 mg/kg, 24 hpd, read-out: Tissue concentration, spleen",2.27 ± 4.53 ng/g
same,"Tissue concentration, brain",[18],4.90 ± 9.80 ng/g
same,"Tissue concentration, brain",[19],not observable and BQL
same,"Tissue concentration, brain",[20],27.0 ± 23.4 ng/g
same,"Tissue concentration, brain",[21],BQL
same,"Tissue concentration, brain",[22],BQL
same,"Tissue concentration, heart",[23],7.85 ± 9.50 ng/g
same,"Tissue concentration, heart",[24],780 ± 375 ng/g
same,"Tissue concentration, heart",[25],BQL
same,"Tissue concentration, kidney",[26],6920 ± 3290 ng/g
same,"Tissue concentration, kidney","kidney, single intravenous bolus of Formula I 25 mg/kg, 12 hpd",39.3 ± 32.1 ng/g
same,"Tissue concentration, kidney",[27],10300 ± 2300 ng/g
same,"Tissue concentration, liver",[28],12400 ± 5150 ng/g
same,"Tissue concentration, liver",[29],45.6 ± 25.8 ng/g
same,"Tissue concentration, lung","lung, single oral dose of Formula I 125 mg/kg, 3 hpd",1630 ± 667 ng/g
same,"Tissue concentration, spleen",[30],1390 ± 301 ng/g
CC1(O)[C@@H](O)[C@@H](COP(=O)(O)O)O[C@H]1n1ccc(=O)[nH]c1=S (stereo partly drawn) [Formula III],"Exposure in the lung and spleen, fold lower than liver and kidneys",,about 10 fold
same,concentration at 24 h,"125 mg/kg, liver and kidney, 24 hpd after oral dosing with Formula I, read-out: Concentration measurable in the liver and kidney",~500 nM
same,concentration at 12 h,[1],276 ± 78.1 ng/g
same,concentration at 3 h,[2],14100 ± 5050 ng/g
same,concentration at 12 h,[3],824 ± 432 ng/g
same,concentration at 24 h,[4],85.5 ± 18.1 ng/g
same,concentration at 2 h,[5],13100 ± 3070 ng/g
same,concentration at 12 h,[6],62.7 ± 77.7 ng/g
same,concentration at 12 h,[7],1640 ± 924 nM
same,concentration at 12 h,[8],582 ± 328 ng/g
same,concentration at 24 h,[9],537 ± 229 nM
same,concentration at 24 h,[10],190 ± 81 ng/g
same,concentration at 2 h,[11],2040 ± 883 ng/g
same,concentration at 12 h,[12],357 ± 207 ng/g
same,concentration at 3 h,[13],303 ± 94.4 ng/g
same,concentration at 12 h,[14],55.2 ± 64.6 ng/g
same,concentration at 2 h,[15],240 ± 28.3 ng/g
same,concentration at 12 h,[16],58.9 ± 14.7 ng/g
same,concentration at 3 h,[17],118 ± 10.8 ng/g
same,"Tissue concentration, brain",[18],BQL
same,"Tissue concentration, brain",[19],BQL
same,"Tissue concentration, brain",[20],BQL
same,"Tissue concentration, brain",[21],BQL
same,"Tissue concentration, brain",[22],BQL
same,"Tissue concentration, heart","heart, single intravenous bolus of Formula I 25 mg/kg, 2 hpd",89.9 ± 65.5 ng/g
same,"Tissue concentration, heart",[23],BQL
same,"Tissue concentration, heart",[24],34.0 ± 39.9 ng/g
same,"Tissue concentration, heart","heart, single oral dose of Formula I 125 mg/kg, 12 hpd",BQL
same,"Tissue concentration, heart",[25],BQL
same,"Tissue concentration, kidney",[26],above the limit of quantitation and AQL
same,"Tissue concentration, kidney",[27],14100 ± 5050^ ng/g
same,"Tissue concentration, kidney","kidney, single oral dose of Formula I 125 mg/kg, 24 hpd",85.5 ± 18.1 ng/g
same,"Tissue concentration, liver","liver, single intravenous bolus of Formula I 25 mg/kg, 2 hpd",13100 ± 3070 ng/g
same,Tissue concentration in Göttingen pig liver (Table 7),[28],AQL
same,"Tissue concentration, liver",[28],above the limit of quantitation and AQL
same,"Tissue concentration, liver",[29],190 ± 81.0 ng/g
same,"Tissue concentration, lung","lung, single intravenous bolus of Formula I 25 mg/kg, 12 hpd",357 ± 207 ng/g
same,"Tissue concentration, lung","lung, single oral dose of Formula I 125 mg/kg, 24 hpd",BQL
same,"Tissue concentration, spleen","spleen, single intravenous bolus of Formula I 25 mg/kg, 12 hpd",58.9 ± 14.7 ng/g
same,"Tissue concentration, spleen",[30],118 ± 10.8 ng/g
same,"Tissue concentration, spleen","spleen, single oral dose of Formula I 125 mg/kg, 12 hpd",BQL
same,"Tissue concentration, spleen","spleen, single oral dose of Formula I 125 mg/kg, 24 hpd",BQL

# Reference: US20240390408A1, “METHOD OF TREATING HEPATITIS C VIRUS IN PATIENTS” (Altesa BioSciences, Inc., priority 2023, published 2024)
